Patent publication US20260097047A1, “Small molecule inhibitors of the ribosome biogenesis factor NVL2” (Board of Regents, The University of Texas System, priority 2023, published 2026)

These compounds were tested on HCT116 cells (assay: Cell viability assay (CellTiter-Glo, 72 hours) in HCT116 human colorectal cancer cells). Settings: Table 7; cell viability assay, CellTiter-Glo, 72 hours; scaffold drawing 42 with R^2, R^3, X/Y, Z; read-out: Activity.
Type: cell-based
Procedure: Cell culture: The HCT116 cell line was obtained from ATCC and cultured in Dulbecco's Modified Eagle's Medium (DMEM)-high glucose (Sigma Aldrich #D5796) supplemented with 10% fetal bovine serum (FBS) (Sigma-Aldrich #F2442) and 2 mM L-Glutamine (Sigma Aldrich #G7513). Cells were cultured at 37° C. in 5% CO2. The identity of all cell lines was confirmed by short tandem repeat (STR) analysis and confirmed to be mycoplasma-free using a PCR based assay (Genatlantis).
Cell viability assay: In 96-well assay plates (Corning #2903), 2,000 cells were plated per well in 100 μL of medium and allowed to adhere overnight. The next day, compounds suspended in DMSO were dispensed to the assayed wells using a D300e Digital Dispenser (Tecan). All wells were normalized to 0.5% DMSO. 72 hours after incubation at 37° C. in 5% CO2, cell viability was assayed using an ATP-based luminescent viability assay, CellTiter-Glo (Promega #G8462). Substrate was mixed 1:1 with phosphate-buffered saline (PBS) supplemented with 1% Triton X-100, and 40 μL of this mixture was added to the assay wells. Plates were shaken on a microplate shaker for 10 minutes at room temperature. Luminescence (CellTiter-Glo) was recorded using a Synergy 2 microplate reader (BioTek). In Prism 9 software (GraphPad), ten-point dose response curves were plotted with baseline-correction to the vehicle control well, and IC50 values were calculated by curve fitting using asymmetric (five parameter), least squares fit.

IC50 [nM] | SMILES
< 500 | C=CCN1C(=O)c2ccc(F)cc2Sc2cc(NC(=O)c3ccc4scnc4c3)ccc21
< 500 | CC=CCN1C(=O)c2ccccc2Sc2cc(NC(=O)c3ccc4scnc4c3)ccc21
< 500 | C#CCOCCN1C(=O)c2ccc(F)cc2Sc2cc(NC(=O)c3ccc4scnc4c3)ccc21
< 500 | COCCN1C(=O)c2ccccc2Sc2cc(NC(=O)c3ccc4oc(C)nc4c3)ccc21
1000 to 5000 | COCCN1C(=O)c2ccccc2Sc2cc(NC(=O)c3ccc4oc(=O)[nH]c4c3)ccc21
500 to 1000 | COCCN1C(=O)c2ccccc2Sc2cc(NC(=O)c3ccc4oc(=O)n(C)c4c3)ccc21
< 500 | COCCN1C(=O)c2ccccc2Sc2cc(NC(=O)c3ccc4ocnc4c3)ccc21
1000 to 5000 | COCCN1C(=O)c2ccccc2Sc2cc(NC(=O)c3ccc4ncoc4c3)ccc21
1000 to 5000 | COCCN1C(=O)c2ccccc2Sc2cc(NC(=O)c3ccc4nccn4c3)ccc21
1000 to 5000 | COCCN1C(=O)c2ccccc2Sc2cc(NC(=O)c3ccn4ccnc4c3)ccc21
1000 to 5000 | COCCN1C(=O)c2ccccc2Sc2cc(NC(=O)C3CCOCC3)ccc21
< 500 | C=CCCCOCCN1C(=O)c2ccccc2Sc2cc(NC(=O)c3ccoc3)ccc21

Same assay, conditions: Table 8; analogs of scaffold drawing 43 defined by R^2, R^3, X/Y, W; read-out: Activity (IC50 class, cell viability assay)

SMILES | IC50 [nM]
CC#CCN1C(=O)c2ccccc2Sc2cc(NC(=O)C34CC(C(F)(F)F)(C3)C4)ccc21 | 500 to 1000
CC#CCN1C(=O)c2ccc(Cl)cc2Sc2cc(NC(=O)C34CC(OC)(C3)C4)cnc21 | < 500
CC#CCN1C(=O)c2cc(F)ccc2Sc2cc(NC(=O)C34CC(OC)(C3)C4)cnc21 | < 500
CC#CCN1C(=O)c2ccccc2Sc2cc(NC(=O)C34CC(OC)(C3)C4)ccc21 | < 500
CC#CCN1C(=O)c2ccccc2Sc2cc(NC(=O)C34CC(OC)(C3)C4)cnc21 | < 500
CC#CCN1C(=O)c2cc(F)ccc2Sc2cc(NC(=O)C3CC4(CC(O)C4)C3)cnc21 (stereo not drawn) | < 500
CC#CCN1C(=O)c2ccc(Cl)cc2Sc2cc(NC(=O)C3CC4(CC(O)C4)C3)ccc21 (stereo not drawn) | < 500
CC#CCN1C(=O)c2ccc(Cl)cc2Sc2cc(NC(=O)C3CC4(CC(=NO)C4)C3)ccc21 (stereo not drawn) | < 500
CC#CCN1C(=O)c2ccccc2Sc2cc(NC(=O)C3CC4(CC(=NO)C4)C3)cnc21 (stereo not drawn) | < 500
CC#CCN1C(=O)c2ccc(F)cc2Sc2cc(NC(=O)C3CC4(CC(=NO)C4)C3)cnc21 (stereo not drawn) | < 500
CC#CCN1C(=O)c2cc(F)ccc2Sc2cc(NC(=O)C3CC4(CC(=NO)C4)C3)cnc21 (stereo not drawn) | < 500
CC#CCN1C(=O)c2ccccc2Sc2cc(NC(=O)C3CC4(CC(=NOC)C4)C3)cnc21 (stereo not drawn) | < 500
CC#CCN1C(=O)c2ccc(Cl)cc2Sc2cc(NC(=O)C3CC4(CC(=O)C4)C3)ccc21 | < 500
CC#CCN1C(=O)c2cc(F)ccc2Sc2cc(NC(=O)C3CC4(CC(=O)C4)C3)ccc21 | < 500
CC#CCN1C(=O)c2ccccc2Sc2cc(NC(=O)C3CC4(CC(=O)C4)C3)cnc21 | < 500
CC#CCN1C(=O)c2ccccc2Sc2cc(NC(=O)c3ccc4scnc4c3)ccc21 | < 500
CC#CCN1C(=O)c2ccccc2Sc2cc(NC(=O)C34CC(C3)C4)ccc21 | < 500
CC#CCN1C(=O)c2ccccc2Sc2cc(NC(=O)C34CC(C3)C4)cnc21 | < 500
CC#CCN1C(=O)c2ccccc2Sc2cc(NC(=O)C3CC4(CCC4)C3)ccc21 | < 500
CC#CCN1C(=O)c2ccc(Cl)cc2Sc2cc(NC(=O)C3CCCO3)ccc21 (stereo not drawn) | < 500
CC#CCN1C(=O)c2ccc(Cl)cc2Sc2cc(NC(=O)C3CCCO3)cnc21 (stereo not drawn) | < 500
CC#CCN1C(=O)c2cc(F)ccc2Sc2cc(NC(=O)C3CCCO3)ccc21 (stereo not drawn) | < 500

SMILES | IC50 [nM]
CC#CCN1C(=O)c2ccc(Cl)cc2Sc2cc(NC(=O)C3CCOC3)ccc21 (stereo not drawn) | < 500
CC#CCN1C(=O)c2ccc(Cl)cc2Sc2cc(NC(=O)C3CCOC3)cnc21 (stereo not drawn) | < 500
O=C(Nc1ccc2c(c1)Sc1ccccc1C(=O)N2CC#CC1CC1)C1CC2(COC2)C1 | < 500
O=C(Nc1cnc2c(c1)Sc1ccccc1C(=O)N2CC#CC1CC1)C1CC2(COC2)C1 | < 500
O=C(Nc1ccc2c(c1)Sc1ccc(F)cc1C(=O)N2CC#CC1CC1)C1CC2(COC2)C1 | < 500
N#CC12CC(C(=O)Nc3cnc4c(c3)Sc3ccccc3C(=O)N4CC#CC3CC3)(C1)C2 | < 500
O=C1c2ccccc2Sc2cc(NC(=O)C34CC(F)(C3)C4)cnc2N1CC#CC1CC1 | < 500
O=C1c2cc(F)ccc2Sc2cc(NC(=O)C34CC(O)(C3)C4)cnc2N1CC#CC1CC1 | < 500
CC12CC(C(=O)Nc3cnc4c(c3)Sc3ccccc3C(=O)N4CC#CC3CC3)(C1)C2 | < 500
COC12CC(C(=O)Nc3cnc4c(c3)Sc3ccc(F)cc3C(=O)N4CC#CC3CC3)(C1)C2 | < 500
COC12CC(C(=O)Nc3cnc4c(c3)Sc3ccccc3C(=O)N4CC#CC3CC3)(C1)C2 | < 500
O=C(Nc1ccc2c(c1)Sc1ccc(F)cc1C(=O)N2CC#CC1CC1)C1CC2(CC(O)C2)C1 (stereo not drawn) | < 500
O=C(Nc1cnc2c(c1)Sc1ccc(F)cc1C(=O)N2CC#CC1CC1)C1CC2(CC(O)C2)C1 (stereo not drawn) | < 500
O=C(Nc1cnc2c(c1)Sc1ccccc1C(=O)N2CC#CC1CC1)C1CC2(CC(O)C2)C1 (stereo not drawn) | < 500
O=C(Nc1cnc2c(c1)Sc1ccccc1C(=O)N2CC#CC1CC1)C1CC2(CC(=NO)C2)C1 (stereo not drawn) | < 500
CON=C1CC2(C1)CC(C(=O)Nc1ccc3c(c1)Sc1ccc(F)cc1C(=O)N3CC#CC1CC1)C2 (stereo not drawn) | < 500
CON=C1CC2(C1)CC(C(=O)Nc1cnc3c(c1)Sc1ccc(F)cc1C(=O)N3CC#CC1CC1)C2 (stereo not drawn) | < 500
CON=C1CC2(C1)CC(C(=O)Nc1cnc3c(c1)Sc1ccccc1C(=O)N3CC#CC1CC1)C2 (stereo not drawn) | < 500
O=C1CC2(C1)CC(C(=O)Nc1cnc3c(c1)Sc1ccccc1C(=O)N3CC#CC1CC1)C2 | < 500
O=C1c2ccccc2Sc2cc(NC(=O)C34CC(C3)C4)cnc2N1CC#CC1CC1 | < 500
O=C(Nc1cnc2c(c1)Sc1ccccc1C(=O)N2CC#CC1CC1)C1CCOC1 (stereo not drawn) | < 500

The next lines start with the values.

IC50 [nM] | SMILES
< 500 | COC12CC(C(=O)Nc3cnc4c(c3)Sc3ccccc3C(=O)N4CC#CCF)(C1)C2
< 500 | O=C(Nc1cnc2c(c1)Sc1ccccc1C(=O)N2CC#CCl)C1CC2(CC(=NO)C2)C1 (stereo not drawn)
< 500 | O=C(Nc1ccc2c(c1)Sc1cc(Cl)ccc1C(=O)N2CC#CCl)C1CC2(CC(=NO)C2)C1 (stereo not drawn)
< 500 | O=C(Nc1cnc2c(c1)Sc1cc(Cl)ccc1C(=O)N2CC#CCl)C1CC2(CC(=NO)C2)C1 (stereo not drawn)
< 500 | O=C(Nc1ccc2c(c1)Sc1ccc(F)cc1C(=O)N2CC#CCl)C1CC2(CC(=NO)C2)C1 (stereo not drawn)
< 500 | CON=C1CC2(C1)CC(C(=O)Nc1ccc3c(c1)Sc1cc(Cl)ccc1C(=O)N3CC#CCl)C2 (stereo not drawn)
< 500 | CON=C1CC2(C1)CC(C(=O)Nc1ccc3c(c1)Sc1ccc(F)cc1C(=O)N3CC#CCl)C2 (stereo not drawn)
< 500 | CON=C1CC2(C1)CC(C(=O)Nc1cnc3c(c1)Sc1cc(Cl)ccc1C(=O)N3CC#CCl)C2 (stereo not drawn)
< 500 | CON=C1CC2(C1)CC(C(=O)Nc1ccc3c(c1)Sc1ccccc1C(=O)N3CC#CCl)C2 (stereo not drawn)
< 500 | CON=C1CC2(C1)CC(C(=O)Nc1cnc3c(c1)Sc1ccccc1C(=O)N3CC#CCl)C2 (stereo not drawn)
< 500 | C#CCN1C(=O)c2cc(F)ccc2Sc2cc(NC(=O)C3CC4(CC(=NO)C4)C3)ccc21 (stereo not drawn)
< 500 | C#CCN1C(=O)c2ccccc2Sc2cc(NC(=O)C3CC4(CC(=NO)C4)C3)cnc21 (stereo not drawn)
< 500 | C#CCN1C(=O)c2ccc(Cl)cc2Sc2cc(NC(=O)C3CC4(CC(=NO)C4)C3)ccc21 (stereo not drawn)
< 500 | C#CCN1C(=O)c2ccccc2Sc2cc(NC(=O)C3CC4(CC(=NO)C4)C3)ccc21 (stereo not drawn)
< 500 | C#CCN1C(=O)c2ccc(Cl)cc2Sc2cc(NC(=O)C3CC4(CC(=NOC)C4)C3)ccc21 (stereo not drawn)
< 500 | C#CCN1C(=O)c2cc(F)ccc2Sc2cc(NC(=O)C3CC4(CC(=NOC)C4)C3)ccc21 (stereo not drawn)
< 500 | C#CCN1C(=O)c2ccccc2Sc2cc(NC(=O)C3CC4(CC(=NOC)C4)C3)cnc21 (stereo not drawn)
< 500 | CC#CCN1C(=O)c2ccccc2Sc2cc(NC(=O)C3CC4(COC4)C3)cnc21
< 500 | CC#CCN1C(=O)c2ccc(Cl)cc2Sc2cc(NC(=O)C3CC4(COC4)C3)cnc21
< 500 | CC#CCN1C(=O)c2ccc(Cl)cc2Sc2cc(NC(=O)C3CC4(COC4)C3)ccc21
< 500 | CC#CCN1C(=O)c2ccccc2Sc2cc(NC(=O)C34CC(C#N)(C3)C4)ccc21
< 500 | CC#CCN1C(=O)c2ccccc2Sc2cc(NC(=O)C34CC(C#N)(C3)C4)cnc21
< 500 | CC#CCN1C(=O)c2ccccc2Sc2cc(NC(=O)C34CC(F)(C3)C4)ccc21
< 500 | CC#CCN1C(=O)c2ccccc2Sc2cc(NC(=O)C34CC(O)(C3)C4)cnc21
< 500 | CC#CCN1C(=O)c2ccc(Cl)cc2Sc2cc(NC(=O)C34CC(O)(C3)C4)ccc21
< 500 | CC#CCN1C(=O)c2cc(F)ccc2Sc2cc(NC(=O)C34CC(O)(C3)C4)cnc21
< 500 | CC#CCN1C(=O)c2ccccc2Sc2cc(NC(=O)c3ccc4oc(=O)n(C)c4c3)cnc21
< 500 | CC#CCN1C(=O)c2ccccc2Sc2cc(NC(=O)C34CC(C)(C3)C4)ccc21
< 500 | CC#CCN1C(=O)c2ccccc2Sc2cc(NC(=O)C34CC(C)(C3)C4)cnc21
